Tests used:
Assay in all cases: Kinase inhibitory activity profiling of RI-962@10 µM (406 kinases, Eurofins)
Format in all cases: biochemical
[1] = molecular target: panel of human kinases (kinase named in endpoint) (Homo sapiens, UniProt Q9UPZ9); conditions: 10 µM; read-out: Activity (%), ICK(h)
How it was run: (§1)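 Radiometric filter-binding kinase assays: enzyme preincubated 15 min with compound in 8 mM MOPS pH 7.0, 0.2 mM EDTA, 250 μM peptide substrate, 10 mM magnesium acetate, 10 μM [γ-33P]-ATP. Reaction started with Mg/ATP, run 40 min at room temperature, stopped with phosphoric acid; 33P incorporation read by scintillation counting. Other kinases by similar protocols.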

[2] = molecular target: panel of human kinases (kinase named in endpoint) (Homo sapiens, UniProt O94806); conditions: 10 µM; read-out: Activity (%), PKD3(h)
Chain of panel of human kinases (kinase named in endpoint) (Homo sapiens, UniProt O94806) (O94806 whole entry): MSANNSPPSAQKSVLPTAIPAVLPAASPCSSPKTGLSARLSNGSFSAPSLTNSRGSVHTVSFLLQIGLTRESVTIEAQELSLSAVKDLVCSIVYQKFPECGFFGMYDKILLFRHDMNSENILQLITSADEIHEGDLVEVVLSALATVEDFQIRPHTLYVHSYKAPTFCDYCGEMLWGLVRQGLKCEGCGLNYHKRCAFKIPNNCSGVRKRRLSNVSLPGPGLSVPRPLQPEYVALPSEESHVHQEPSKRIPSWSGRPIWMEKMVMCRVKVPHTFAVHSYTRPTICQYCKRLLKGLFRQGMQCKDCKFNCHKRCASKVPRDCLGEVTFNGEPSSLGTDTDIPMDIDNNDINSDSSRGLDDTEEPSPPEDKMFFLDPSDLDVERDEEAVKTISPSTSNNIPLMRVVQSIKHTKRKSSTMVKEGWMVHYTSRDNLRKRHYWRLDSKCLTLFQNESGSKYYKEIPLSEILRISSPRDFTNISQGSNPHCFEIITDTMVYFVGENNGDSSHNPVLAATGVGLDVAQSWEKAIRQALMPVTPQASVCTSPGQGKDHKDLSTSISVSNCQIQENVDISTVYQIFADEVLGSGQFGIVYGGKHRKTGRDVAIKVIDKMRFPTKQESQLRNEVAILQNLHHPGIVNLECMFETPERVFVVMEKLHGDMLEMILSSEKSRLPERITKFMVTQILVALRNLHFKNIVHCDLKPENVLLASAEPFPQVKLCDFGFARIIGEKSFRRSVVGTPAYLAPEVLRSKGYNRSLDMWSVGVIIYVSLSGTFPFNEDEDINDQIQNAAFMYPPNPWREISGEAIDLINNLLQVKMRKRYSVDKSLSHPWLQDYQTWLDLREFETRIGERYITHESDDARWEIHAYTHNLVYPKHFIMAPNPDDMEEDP
How it was run: as §1

[3] = molecular target: panel of human kinases (kinase named in endpoint) (Homo sapiens, UniProt P53779); conditions: 10 µM; read-out: Activity (%), JNK3(h)
How it was run: as §1

[4] = molecular target: panel of human kinases (kinase named in endpoint) (Homo sapiens, UniProt P07333); conditions: 10 µM; read-out: Activity (%), Fms(h)
How it was run: as §1

[5] = molecular target: panel of human kinases (kinase named in endpoint) (Homo sapiens, UniProt P00519, M351T); conditions: 10 µM; read-out: Activity (%), Abl (M351T)(h)
How it was run: as §1

[6] = molecular target: panel of human kinases (kinase named in endpoint) (Homo sapiens, UniProt P21802, N549H); conditions: 10 µM; read-out: Activity (%), FGFR2(N549H)(h)
Chain of panel of human kinases (kinase named in endpoint) (Homo sapiens, UniProt P21802, N549H) (P21802 22-821 N549H): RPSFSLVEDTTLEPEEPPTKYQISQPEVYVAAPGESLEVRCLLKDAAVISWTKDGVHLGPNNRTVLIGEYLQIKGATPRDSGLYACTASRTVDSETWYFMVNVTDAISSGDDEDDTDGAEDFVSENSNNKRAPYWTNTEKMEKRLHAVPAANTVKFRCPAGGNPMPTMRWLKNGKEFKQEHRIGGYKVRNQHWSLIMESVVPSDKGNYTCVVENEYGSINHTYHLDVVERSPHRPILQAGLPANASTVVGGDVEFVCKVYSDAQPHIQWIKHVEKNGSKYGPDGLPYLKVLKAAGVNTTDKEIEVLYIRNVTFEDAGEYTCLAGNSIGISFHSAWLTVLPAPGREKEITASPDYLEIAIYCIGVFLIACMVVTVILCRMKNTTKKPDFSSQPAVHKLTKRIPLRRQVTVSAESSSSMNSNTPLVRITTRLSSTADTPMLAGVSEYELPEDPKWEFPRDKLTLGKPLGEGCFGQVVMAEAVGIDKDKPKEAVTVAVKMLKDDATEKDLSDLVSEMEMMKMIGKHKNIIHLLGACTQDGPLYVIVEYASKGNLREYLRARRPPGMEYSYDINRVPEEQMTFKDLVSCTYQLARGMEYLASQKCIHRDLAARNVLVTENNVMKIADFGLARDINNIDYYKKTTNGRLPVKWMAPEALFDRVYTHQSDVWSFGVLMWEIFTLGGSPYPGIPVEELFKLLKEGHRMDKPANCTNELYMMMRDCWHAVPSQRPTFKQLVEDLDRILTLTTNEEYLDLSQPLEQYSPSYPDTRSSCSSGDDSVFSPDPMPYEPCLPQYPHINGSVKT
How it was run: as §1

[7] = molecular target: panel of human kinases (kinase named in endpoint) (Homo sapiens, UniProt P29323); conditions: 10 µM; read-out: Activity (%), EphB2(h)
How it was run: as §1

[8] = molecular target: panel of human kinases (kinase named in endpoint) (Homo sapiens, UniProt Q05513); conditions: 10 µM; read-out: Activity (%), PKCζ(h)
Chain of panel of human kinases (kinase named in endpoint) (Homo sapiens, UniProt Q05513) (Q05513 whole entry): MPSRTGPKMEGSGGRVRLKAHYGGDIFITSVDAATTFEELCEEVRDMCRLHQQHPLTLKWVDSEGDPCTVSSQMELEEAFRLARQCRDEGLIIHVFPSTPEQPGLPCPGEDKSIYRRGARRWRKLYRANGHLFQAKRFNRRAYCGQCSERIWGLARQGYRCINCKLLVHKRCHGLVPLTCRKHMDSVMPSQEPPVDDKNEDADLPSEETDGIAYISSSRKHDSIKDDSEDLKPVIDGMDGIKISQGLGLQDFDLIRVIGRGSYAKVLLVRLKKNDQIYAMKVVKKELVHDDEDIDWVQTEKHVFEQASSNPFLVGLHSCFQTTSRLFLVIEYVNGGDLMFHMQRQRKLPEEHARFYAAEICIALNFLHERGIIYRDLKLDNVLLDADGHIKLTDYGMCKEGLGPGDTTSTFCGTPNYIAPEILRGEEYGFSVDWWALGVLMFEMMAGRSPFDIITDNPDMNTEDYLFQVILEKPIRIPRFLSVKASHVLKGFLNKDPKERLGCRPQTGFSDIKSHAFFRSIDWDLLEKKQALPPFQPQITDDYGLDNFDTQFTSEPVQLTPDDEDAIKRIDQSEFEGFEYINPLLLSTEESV
How it was run: as §1

[9] = molecular target: panel of human kinases (kinase named in endpoint) (Homo sapiens, UniProt Q07002); conditions: 10 µM; read-out: Activity (%), CDK18/cyclinY(h)
How it was run: as §1

[10] = molecular target: panel of human kinases (kinase named in endpoint) (Homo sapiens, UniProt P04049); conditions: 10 µM; read-out: Activity (%), c-RAF(h)
How it was run: as §1

[11] = molecular target: panel of human kinases (kinase named in endpoint) (Homo sapiens, UniProt Q13188); conditions: 10 µM; read-out: Activity (%), MST2(h)
How it was run: as §1

[12] = molecular target: panel of human kinases (kinase named in endpoint) (Homo sapiens, UniProt Q04771); conditions: 10 µM; read-out: Activity (%), ALK2(h)
How it was run: as §1

[13] = molecular target: panel of human kinases (kinase named in endpoint) (Homo sapiens, UniProt O43781); conditions: 10 µM; read-out: Activity (%), DYRK3(h)
How it was run: as §1

[14] = molecular target: panel of human kinases (kinase named in endpoint) (Homo sapiens, UniProt Q96PF2); conditions: 10 µM; read-out: Activity (%), TSSK2(h)
How it was run: as §1

[15] = molecular target: panel of human kinases (kinase named in endpoint) (Homo sapiens, UniProt Q8TDC3); conditions: 10 µM; read-out: Activity (%), BrSK1(h)
How it was run: as §1

[16] = molecular target: panel of human kinases (kinase named in endpoint) (Homo sapiens, UniProt P10721, D816H); conditions: 10 µM; read-out: Activity (%), cKit(D816H)(h)
How it was run: as §1

[17] = molecular target: panel of human kinases (kinase named in endpoint) (Homo sapiens, UniProt Q13177); conditions: 10 µM; read-out: Activity (%), PAK2(h)
How it was run: as §1

[18] = molecular target: panel of human kinases (kinase named in endpoint) (Homo sapiens, UniProt Q16566); conditions: 10 µM; read-out: Activity (%), CaMKIV(h)
How it was run: as §1

[19] = molecular target: panel of human kinases (kinase named in endpoint) (Homo sapiens, UniProt Q9UK32); conditions: 10 µM; read-out: Activity (%), Rsk4(h)
How it was run: as §1

[20] = molecular target: panel of human kinases (kinase named in endpoint) (Homo sapiens, UniProt Q00532); conditions: 10 µM; read-out: Activity (%), CDKL1(h)
How it was run: as §1

[21] = molecular target: panel of human kinases (kinase named in endpoint) (Homo sapiens, UniProt Q13554); conditions: 10 µM; read-out: Activity (%), CaMKIIβ(h)
How it was run: as §1

[22] = molecular target: panel of human kinases (kinase named in endpoint) (Homo sapiens, UniProt O95819); conditions: 10 µM; read-out: Activity (%), MAP4K4(h)
How it was run: as §1

[23] = molecular target: panel of human kinases (kinase named in endpoint) (Homo sapiens, UniProt P36888); conditions: 10 µM; read-out: Activity (%), Flt3(h)
Chain of panel of human kinases (kinase named in endpoint) (Homo sapiens, UniProt P36888) (P36888 27-993): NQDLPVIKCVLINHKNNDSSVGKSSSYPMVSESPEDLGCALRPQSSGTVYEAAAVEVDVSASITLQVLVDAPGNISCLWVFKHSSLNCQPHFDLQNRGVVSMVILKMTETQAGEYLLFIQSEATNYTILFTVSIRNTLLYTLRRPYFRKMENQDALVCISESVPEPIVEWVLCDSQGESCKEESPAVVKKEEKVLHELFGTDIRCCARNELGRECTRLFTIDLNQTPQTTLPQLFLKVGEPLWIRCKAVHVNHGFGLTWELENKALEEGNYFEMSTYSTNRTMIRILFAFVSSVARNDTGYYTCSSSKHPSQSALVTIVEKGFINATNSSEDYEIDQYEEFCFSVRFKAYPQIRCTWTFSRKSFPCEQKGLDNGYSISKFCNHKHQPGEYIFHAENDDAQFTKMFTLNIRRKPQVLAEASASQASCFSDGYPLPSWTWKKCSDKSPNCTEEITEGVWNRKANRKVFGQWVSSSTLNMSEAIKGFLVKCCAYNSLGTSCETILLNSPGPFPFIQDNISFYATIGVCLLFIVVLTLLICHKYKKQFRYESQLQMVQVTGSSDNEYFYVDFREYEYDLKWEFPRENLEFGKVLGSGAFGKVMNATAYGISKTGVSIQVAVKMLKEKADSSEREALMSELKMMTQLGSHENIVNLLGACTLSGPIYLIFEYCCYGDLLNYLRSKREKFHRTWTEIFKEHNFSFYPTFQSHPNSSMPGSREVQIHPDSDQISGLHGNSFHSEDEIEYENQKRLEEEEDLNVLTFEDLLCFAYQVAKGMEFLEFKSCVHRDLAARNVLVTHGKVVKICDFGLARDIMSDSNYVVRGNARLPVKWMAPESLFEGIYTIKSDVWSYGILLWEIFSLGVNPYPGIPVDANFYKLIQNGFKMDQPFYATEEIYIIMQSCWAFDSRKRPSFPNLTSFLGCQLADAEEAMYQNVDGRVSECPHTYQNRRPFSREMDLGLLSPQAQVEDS
How it was run: as §1

[24] = molecular target: panel of human kinases (kinase named in endpoint) (Homo sapiens, UniProt P52333); conditions: 10 µM; read-out: Activity (%), JAK3(h)
Chain of panel of human kinases (kinase named in endpoint) (Homo sapiens, UniProt P52333) (P52333 whole entry): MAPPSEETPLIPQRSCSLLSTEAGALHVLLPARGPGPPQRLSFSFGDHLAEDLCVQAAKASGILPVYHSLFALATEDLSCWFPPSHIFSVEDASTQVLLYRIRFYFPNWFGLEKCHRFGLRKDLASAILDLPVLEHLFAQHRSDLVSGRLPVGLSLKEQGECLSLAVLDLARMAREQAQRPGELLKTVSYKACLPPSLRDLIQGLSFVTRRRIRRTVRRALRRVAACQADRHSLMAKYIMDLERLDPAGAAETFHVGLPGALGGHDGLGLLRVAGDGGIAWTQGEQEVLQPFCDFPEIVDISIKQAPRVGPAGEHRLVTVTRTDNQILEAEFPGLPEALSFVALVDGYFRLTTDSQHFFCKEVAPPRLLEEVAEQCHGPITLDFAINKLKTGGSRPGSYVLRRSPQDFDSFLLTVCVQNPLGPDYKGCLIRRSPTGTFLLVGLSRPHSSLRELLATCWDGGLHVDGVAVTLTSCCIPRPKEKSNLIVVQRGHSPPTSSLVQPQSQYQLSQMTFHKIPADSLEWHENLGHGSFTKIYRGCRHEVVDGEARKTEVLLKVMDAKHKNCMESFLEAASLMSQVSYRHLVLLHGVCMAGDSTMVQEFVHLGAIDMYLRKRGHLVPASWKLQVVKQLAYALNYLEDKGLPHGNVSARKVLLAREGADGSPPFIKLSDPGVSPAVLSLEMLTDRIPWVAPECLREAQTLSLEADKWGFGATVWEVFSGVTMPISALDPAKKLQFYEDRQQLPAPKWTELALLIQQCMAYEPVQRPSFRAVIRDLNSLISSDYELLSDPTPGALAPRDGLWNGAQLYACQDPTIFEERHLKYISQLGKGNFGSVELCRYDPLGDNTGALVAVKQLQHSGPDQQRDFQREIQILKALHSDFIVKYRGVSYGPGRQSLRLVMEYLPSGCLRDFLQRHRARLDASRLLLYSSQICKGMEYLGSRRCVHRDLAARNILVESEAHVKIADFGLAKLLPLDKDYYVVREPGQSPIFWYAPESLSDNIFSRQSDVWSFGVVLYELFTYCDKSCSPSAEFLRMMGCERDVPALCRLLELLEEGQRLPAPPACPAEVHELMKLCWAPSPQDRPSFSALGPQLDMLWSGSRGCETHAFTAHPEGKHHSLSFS
How it was run: as §1

[25] = molecular target: panel of human kinases (kinase named in endpoint) (Homo sapiens, UniProt P31751); conditions: 10 µM; read-out: Activity (%), PKBβ(h)
Chain of panel of human kinases (kinase named in endpoint) (Homo sapiens, UniProt P31751) (P31751 whole entry): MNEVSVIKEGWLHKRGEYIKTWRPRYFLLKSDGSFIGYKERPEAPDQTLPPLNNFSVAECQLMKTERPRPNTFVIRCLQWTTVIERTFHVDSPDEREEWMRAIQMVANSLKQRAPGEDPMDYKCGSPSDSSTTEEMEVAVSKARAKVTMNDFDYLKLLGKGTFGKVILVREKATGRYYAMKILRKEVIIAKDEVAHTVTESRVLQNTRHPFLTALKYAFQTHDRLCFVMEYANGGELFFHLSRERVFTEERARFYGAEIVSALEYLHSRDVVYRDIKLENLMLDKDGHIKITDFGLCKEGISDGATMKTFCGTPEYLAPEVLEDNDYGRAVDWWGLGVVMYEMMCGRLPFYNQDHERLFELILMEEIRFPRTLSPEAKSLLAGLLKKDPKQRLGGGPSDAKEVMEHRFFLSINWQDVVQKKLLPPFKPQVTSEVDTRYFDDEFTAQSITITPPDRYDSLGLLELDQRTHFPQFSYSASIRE
How it was run: as §1

[26] = molecular target: panel of human kinases (kinase named in endpoint) (Homo sapiens, UniProt P43405); conditions: 10 µM; read-out: Activity (%), Syk(h)
How it was run: as §1

CC(C)C(=O)Nc1nc2cc(-c3ccc4c(c3)c(C(=O)NC(C)c3ccccc3)cn4C)ccn2n1 (centres unmarked) [RI-962]
activity at 10 µM [1]: 102% | activity at 10 µM [2]: 104% | activity at 10 µM [3]: 56% | activity at 10 µM [4]: 111% | activity at 10 µM [5]: 121% | activity at 10 µM [6]: 100% | activity at 10 µM [7]: 73% | activity at 10 µM [8]: 119% | activity at 10 µM [9]: 119% | activity at 10 µM [10]: 114% | activity at 10 µM [11]: 64% | activity at 10 µM [12]: 104% | activity at 10 µM [13]: 83% | activity at 10 µM [14]: 76% | activity at 10 µM [15]: 100% | activity at 10 µM [16]: 142% | activity at 10 µM [17]: 84% | activity at 10 µM [18]: 77% | activity at 10 µM [19]: 61% | activity at 10 µM [20]: 98% | activity at 10 µM [21]: 109% | activity at 10 µM [22]: 88% | activity at 10 µM [23]: 87% | activity at 10 µM [24]: 95% | activity at 10 µM [25]: 92% | activity at 10 µM [26]: 55%

— publication PMC9653409, “Generative deep learning enables the discovery of a potent and selective RIPK1 inhibitor” (Nature Communications, 2022)
